Results published in patent US4567302A, “Polymeric quaternary ammonium salts possessing antimicrobial activity and methods for preparation and use thereof” (priority 1984, dated 1986).

System: microorganisms
Test: Biocidal activity evaluation, overall comparison in words
Type: cell-based
Description: The biocidal activity evaluations of the present invention quaternary ammonium salts and mixtures thereof as well as of commercially available biocides (for comparison purposes) were conducted using the Dynatech MIC-2000 system (available from Dynatech Laboratories, Inc., Alexandria, Va.). The Dynatech MIC-2000 system provides a quantitative factor, namely the specific concentration of the compound that inhibits the growth of a test organism.
All compounds were prepared for testing by initially making a 1.0% w/v solution. These were then serially diluted so as to yield concentrations of sample in a range of 2000-16 mg/l. Testing was carried out under aseptic conditions in Trypticase Soy Broth (BBL, Div. Becton, Dickinson & Co., Cockeysville, MD). Each test was performed in duplicate and run at pH levels of 7.0, 8.0, and 9.0. The pH of the test medium was adjusted by the addition of 10% w/v NaOH before sterilization.
Organisms utilized for MIC testing were all purchased from the American Type Culture Collection (ATCC), Rockville, MD. The six organisms chosen for these tests were:
Inocula were prepared in Brain Heart Infusion Broth (BHI, Difco Laboratories, Detroit, MI), and standardized to 3.0×10^8 CFU/ml in 0.85% sterile saline. […] Plates were read and evaluated at this time, and results reported in mg/l of compound that inhibited the growth of the test organisms.

O=[N+]([O-])C(Br)(CO)CO [Bronopol]
biocidal activity (in words): more active than the quaternary ammonium salts of the present invention
